Measured values taken from patent US20090233871A1, “Complexed polypeptide and adjuvant for improved vaccines” (priority 2004, published 2009).

Tests used:
[1] = tested on: CD8+ CTLs, T2 stimulators pulsed with polypeptide; type: in vivo, HLA-A2 transgenic mice; settings: 100 μg CpG, equimolar CpG:peptide, s.c., day 10 (FIG. 8)
IFNγ-secreting CD8+ CTLs = assay: primary IFNγ Elispot of CD8+ CTLs from mice primed with peptide plus CpG; settings: 100 μg polypeptide + 100 μg CpG + 10 μg MPL-AF s.c., spleens day 10

Row | Sequence | priming on addition of a KCSRNR amino acid sequence vs native polypeptide [1] | frequencies of IFNγ-secreting CTLs (priming efficiency) (IFNγ-secreting CD8+ CTLs)
1 | KTWGQYWQV | increased priming | –
2 | LTFNYRNL (Synthetically generated peptide) [H60] | – | most inefficient
